Source: patent US20220348590A1, “CYCLOOXYGENASE-2 INHIBITORS AND USES THEREOF” (The Board Institute, Inc., priority 2019, published 2022)
Where two headings read alike, the source gives them in different places.

Assays:
ovine COX-1 (oCOX-1) = target: T1, ovine COX-1 (oCOX-1) (Ovis aries, UniProt P05979); test: LCMS-based COX-1 enzymatic inhibition assay (PGE2 quantification); format: biochemical; conditions: 10 minutes
T1 construct: purchased Cayman Chemicals (Ann Arbor, Mich.)
T1 sequence (P05979 25-600): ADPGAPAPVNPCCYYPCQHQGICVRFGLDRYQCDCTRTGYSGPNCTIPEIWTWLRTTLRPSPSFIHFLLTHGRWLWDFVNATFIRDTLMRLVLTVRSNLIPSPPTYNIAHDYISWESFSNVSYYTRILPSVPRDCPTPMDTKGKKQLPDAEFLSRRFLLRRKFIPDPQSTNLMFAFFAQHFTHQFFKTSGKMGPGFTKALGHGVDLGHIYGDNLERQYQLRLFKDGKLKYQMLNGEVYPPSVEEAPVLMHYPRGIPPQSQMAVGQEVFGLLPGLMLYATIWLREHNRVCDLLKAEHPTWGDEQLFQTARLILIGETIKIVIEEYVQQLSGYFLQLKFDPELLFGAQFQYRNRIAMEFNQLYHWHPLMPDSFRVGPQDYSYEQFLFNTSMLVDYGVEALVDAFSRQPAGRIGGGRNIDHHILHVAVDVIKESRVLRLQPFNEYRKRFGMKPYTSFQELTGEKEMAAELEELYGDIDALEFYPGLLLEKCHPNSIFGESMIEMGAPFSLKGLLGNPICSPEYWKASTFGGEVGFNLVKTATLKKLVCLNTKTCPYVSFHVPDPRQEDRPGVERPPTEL
Procedure: We have adapted a previously reported cyclooxygenase enzymatic assay utilizing LCMS quantification of PGE2 as the product of COX-1 and COX2 catalyzed conversion of arachidonic acid to evaluate the binding properties of newly synthesized ligands [Cao, 2011]. These optimized and miniaturized (384-well plates) LCMS-based COX-1 and COX2 enzymatic assays enabled us to quickly evaluate newly synthesized ligands for COX2 binding affinity and selectivity vs COX-1. Using a shorter ligand-enzyme incubation time in the LCMS assay (2 minutes vs 10 minutes) also permitted us to prioritize ligands with faster binding kinetics. Considering the relatively slow on-rate kinetics of known coxibs, due to their 3-step binding mechanism [Marnett, 2009], we believe that optimizing this critical parameter will be key to the successful development of a COX2 PET tracer. Using these enzymatic assays, we have evaluated>200 newly synthesized ligands against COX2 and >20 ligands against COX-1. Another critical property necessary for a good PET radiotracer is to have low non-specific binding (NSB) to increase the free fraction and maximize the signal to noise ratio. This property can be evaluated using in-vitro protein binding assays, and we have now evaluated>50 newly synthesized ligands in mouse, rat and human plasma protein binding (PPB) assays as well as >15 ligands in a mouse brain protein binding (BPB) assay.
Ovine COX-1 (oCOX-1), ovine COX2 (oCOX2), human recombinant COX2 (hCOX2), arachidonic acid, PGE2, d4-PGD2, and […] (labeled with deuterium atoms at positions 3 and 4) were purchased from Cayman Chemicals (Ann Arbor, Mich.). The cofactors (−)epinephrine and hematin, and the COX inhibitors indomethacin, resveratrol and diclofenac were purchased from Sigma-Aldrich (St. Louis, Mo.). Celecoxib was purchased from 3B PharmaChem International (Wuhan, China). All organic solvents were HPLC grade or better and were purchased from Thermo Fisher (Hanover Park, Ill.). Formic acid was purchased from EMD Chemicals (San Diego, Calif.). Purified water was prepared by using a Millipore Milli-Q purification system (Millipore, Billerica, Mass.). All other chemicals and solvents were ACS reagent grade, unless stated otherwise.
In an Eppendorf tube, 146 μL of 100 mM Tris.HCl (pH 8.0) buffer, 2 μL of 100 μM hematin (co-factor) and 10 μL of 40 mM L-epinephrine (co-factor) were mixed at room temperature. Next, 20 μL of Tris.HCl (pH 8.0) buffer containing 0.2 μg COX2 or 0.1 μg COX-1 (approximately 1 unit of enzyme; 1 unit COX utilizes 1 nmol 02/mg/min at 37° C.) was added, and the solution was incubated at room temperature for 2 min. A 2 μL aliquot of the COX inhibitor in DMSO was added to the enzyme solution and preincubated at 37° C. for 10 min. Negative controls were identical except that 2 μL aliquots of DMSO without inhibitor were used instead.
Each COX reaction was initiated by adding 20 μL of arachidonic acid in Tris.HCl (pH 8.0) buffer to give a final concentration of 5 μM; and the reaction was terminated after 2 min by adding 20 μL of 2.0 M HCl. The surrogate standards d4-PGE2 and d4-PGD2 (10 μL aliquot of 50 ng/mL solution in methanol) were added to correct for errors or degradation during sample handling and for variation in injection volume or instrument response during LC-MS-MS. After 30 min, PGE2, PGD2 and their surrogate standards were extracted from each incubation mixture using 800 μL hexane/ethyl acetate (50:50, v/v). The organic phase was removed, evaporated to dryness, and reconstituted in 100 μL methanol/water (50:50, v/v) for analysis using LC-MS-MS.
The concentration of PGE2 in each sample was measured using LC-MS-MS, and the percent of COX inhibition by each test solution was determined by comparing the amount of PGE2 produced in the experiment with that produced in the negative control incubation. The formation of PGD2 was measured for quality control purposes, since the levels of PGD2 should be proportional to those of PGE2. […]

[1] = target: T2, human recombinant COX2 (hCOX2) (UniProt P35354); test: LCMS-based COX2 enzymatic inhibition assay (PGE2 quantification); format: biochemical; set-up: COX2 2 minutes pge2/pge2d4 area ratio Avg; other: 2 minutes; readout pge2/pge2d4 area ratio; average; COX2 2 minutes pge2/pge2d4 area ratio Avg; LLE; average LLE; COX2 2 minutes pge2 area (counts) Avg; readout pge2 area (counts); other: 2 min; "ovine COX2 (oCOX2), human recombinant COX2 (hCOX2)"; conditions: 2 minutes; for COX2 2 minutes pge2/pge2d4 area ratio Avg. LLE / COX2 2 minutes pge2 area (counts) Avg. LLE: average LLE; for IC50: average
T2 sequence (P35354 1-604): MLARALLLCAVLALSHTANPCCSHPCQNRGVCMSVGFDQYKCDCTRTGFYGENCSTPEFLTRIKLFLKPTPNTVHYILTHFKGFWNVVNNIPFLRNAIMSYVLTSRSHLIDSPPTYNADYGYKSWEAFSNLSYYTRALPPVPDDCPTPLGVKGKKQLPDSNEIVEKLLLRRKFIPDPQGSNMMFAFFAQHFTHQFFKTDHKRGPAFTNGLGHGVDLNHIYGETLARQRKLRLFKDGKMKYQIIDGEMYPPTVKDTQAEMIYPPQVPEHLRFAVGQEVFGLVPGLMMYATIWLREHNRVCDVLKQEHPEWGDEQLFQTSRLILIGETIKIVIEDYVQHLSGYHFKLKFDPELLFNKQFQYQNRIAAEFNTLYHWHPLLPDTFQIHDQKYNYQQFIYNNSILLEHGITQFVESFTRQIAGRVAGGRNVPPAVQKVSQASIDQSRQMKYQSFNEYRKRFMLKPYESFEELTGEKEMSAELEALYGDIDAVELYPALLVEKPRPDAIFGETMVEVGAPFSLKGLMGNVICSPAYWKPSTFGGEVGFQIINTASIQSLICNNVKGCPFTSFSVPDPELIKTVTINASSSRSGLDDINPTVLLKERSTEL
In short: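 Ovine COX-1 (0.1 μg) or human recombinant COX2 (0.2 μg) in 100 mM Tris.HCl pH 8.0 with hematin and epinephrine, preincubated with inhibitor 10 min at 37 °C. Reaction with 5 μM arachidonic acid stopped after 2 min with HCl; PGE2 quantified by LC-MS-MS. IC50 from 12 concentrations in triplicate.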

[2] = pge2/pge2d4 area ratio, head of this section not shown, inferred
[3] = pge2 area (counts), head of this section not shown, inferred
[4] = pge2 area (counts), head of this section not shown, inferred, read-out: COX1 10 minutes pge2 area (counts) Avg. IC50
[5] = readout pge2/pge2d4 area ratio, average, read-out: COX1 10 minutes pge2/pge2d4 area ratio Avg. IC50
[6] = readout pge2/pge2d4 area ratio, read-out: COX2 2 minutes pge2/pge2d4 area ratio Avg. IC50
[7] = readout pge2 area (counts), read-out: COX2 2 minutes pge2 area (counts) Avg. IC50

For `COc1ccc(NCc2cccs2)nc1-c1ccc(S(C)(=O)=O)nc1` [Compound 88], the “COX1 10 minutes pge2/pge2d4 area ratio Avg. LLE” value (ovine COX-1 (oCOX-1); [2]) was 2.306, the “COX1 10 minutes pge2 area (counts) Avg. LLE” value (“COX1 10 minutes pge2 area” for short) (ovine COX-1 (oCOX-1); [3]) was 2.306 and the IC50 (ovine COX-1 (oCOX-1); [4]) was 16000 nM. For the same molecule, the IC50 (ovine COX-1 (oCOX-1); [5]) was 16000 nM, the “COX2 2 minutes pge2/pge2d4 area ratio Avg. LLE” value ([1]; readout pge2/pge2d4 area ratio) was 4.709 and the IC50 [1, 6] was 63.4 nM. For the same molecule, the “COX2 2 minutes pge2 area (counts) Avg. LLE” value (from here on “COX2 2 minutes pge2 area”) ([1]; readout pge2 area (counts)) was 4.67 and the IC50 [1, 7] was 69.3 nM.
For `CS(=O)(=O)c1ccc(-c2ccc3cnn(Cc4cccs4)c3n2)cc1` [Compound 63], the “COX1 10 minutes pge2/pge2d4 area ratio Avg. LLE” value (ovine COX-1 (oCOX-1); [2]) was 2.0906, the “COX1 10 minutes pge2 area” value (ovine COX-1 (oCOX-1); [3]) was 2.128 and the IC50 (ovine COX-1 (oCOX-1); [4]) was 1830 nM. The IC50 (ovine COX-1 (oCOX-1); [5]) was 1990 nM, the “COX2 2 minutes pge2/pge2d4 area ratio Avg. LLE” value ([1]; readout pge2/pge2d4 area ratio) was 3.897 and the IC50 [1, 6] was 35.1 nM. For the same molecule, the “COX2 2 minutes pge2 area” value ([1]; readout pge2 area (counts)) was 3.961 and the IC50 [1, 7] was 27.1 nM.
In the case of `CS(=O)(=O)c1ccc(-c2nc(NCc3cccs3)cnc2C(F)(F)F)cc1` [Compound 76], the “COX1 10 minutes pge2/pge2d4 area ratio Avg. LLE” value (ovine COX-1 (oCOX-1); [2]) is reported as 1.461, the IC50 (ovine COX-1 (oCOX-1); [5]) is reported as 31600 nM and the “COX2 2 minutes pge2/pge2d4 area ratio Avg. LLE” value ([1]; readout pge2/pge2d4 area ratio) is reported as 4.278. For the same molecule, the IC50 [1, 6] was 48.6 nM, the “COX2 2 minutes pge2 area” value ([1]; readout pge2 area (counts)) was 4.291 and the IC50 [1, 7] was 48.5 nM.
`CS(=O)(=O)c1ccc(-c2cccc(OCc3cccs3)n2)nc1` [Compound 37] was tested, and the “COX1 10 minutes pge2/pge2d4 area ratio Avg. LLE” value (ovine COX-1 (oCOX-1); readout pge2/pge2d4 area ratio, average LLE) was 2.056, the IC50 (ovine COX-1 (oCOX-1); [5]) was 39200 nM and the “COX1 10 minutes pge2 area” value (ovine COX-1 (oCOX-1); readout pge2 area (counts), average LLE) was 2.13. The IC50 (ovine COX-1 (oCOX-1); readout pge2 area (counts), average, read-out: COX1 10 minutes pge2 area (counts) Avg. IC50) was 33100 nM, the “COX2 2 minutes pge2/pge2d4 area ratio Avg. LLE” value ([1]; readout pge2/pge2d4 area ratio) was 5.44 and the IC50 [1, 6] was 18.1 nM. For the same molecule, the “COX2 2 minutes pge2 area” value ([1]; readout pge2 area (counts)) was 5.694 and the IC50 [1, 7] was 14.3 nM.
In the case of `CS(=O)(=O)c1ccc(-c2cnc(F)c(NCc3cccs3)n2)cc1` [Compound 97], the “COX2 2 minutes pge2/pge2d4 area ratio Avg. LLE” value ([1]; readout pge2/pge2d4 area ratio) is reported as 4.517, the IC50 [1, 6] is reported as 75.7 nM and the “COX2 2 minutes pge2 area” value ([1]; readout pge2 area (counts)) is reported as 4.626. For the same molecule, the IC50 [1, 7] was 58.1 nM.
In the case of `Cc1ccc(COc2cncc(-c3ccc(S(C)(=O)=O)cc3)n2)s1` [Compound 124], the IC50 [1, 6] is reported as 139 nM and the IC50 [1, 7] is reported as 123 nM.
In the case of `CS(=O)(=O)c1ccc(-c2cnnc(OCc3ccco3)c2)cc1` [Compound 255], the “COX2 2 minutes pge2/pge2d4 area ratio Avg. LLE” value ([1]; readout pge2/pge2d4 area ratio) is reported as 3.111, the IC50 [1, 6] is reported as 4010 nM and the “COX2 2 minutes pge2 area” value ([1]; readout pge2 area (counts)) is reported as 3.485. For the same molecule, the IC50 [1, 7] was 1930 nM.
